Biological target: Replicase polyprotein 1ab (Severe acute respiratory syndrome coronavirus 2, UniProt P0DTD1)
Assay: Inhibition of SARS-CoV-2 papain-like protease using Z-RLRGG-AMC as fluorogenic substrate preincubated for 30 mins followed by substrate addition and measured after 60 mins by plate reader assay

Compound	IC50 [nM]
Cc1ccc(N2CCN(C)CC2)cc1C(=O)N[C@H](C)c1cc(-c2cnn(C)c2)cc(-c2cccs2)c1	4
Cc1cc(C(=O)NCc2cscn2)ccc1C(=O)N[C@H](C)c1cc(-c2cnn(C)c2)cc(-c2ccns2)c1	3
Cc1ccc(NC(=O)[C@H]2CCCCN2)cc1C(=O)N[C@H](C)c1cc(-c2cnn(C)c2)cc(-c2cccs2)c1	4
Cc1ccc(N2CCN(C)CC2)cc1C(=O)N[C@H](C)c1cc(-c2cnn(C)c2)cc(-c2cc(Cl)cnc2N)c1	3
Cc1cc(CNCc2cscn2)ccc1C(=O)N[C@H](C)c1cc(-c2cnn(C)c2)cc(-c2ccns2)c1	3
Cc1ccc(N2CCNCC2)cc1C(=O)N[C@H](C)c1cc(-c2cnn(C)c2)cc(-c2cc(Cl)cnc2N)c1	4
